In the supplement of paper PMC10307832:

Legend:
Test in all cases: relative viability (nuclei count vs DMSO), 5 days (fraction); higher = more cells survive
EKVX = test system: EKVX
Summary of the method: (§1)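 Relative viability is defined as nuclei in treated wells over nuclei in vehicle wells. Duplicate plates were run and medians reported. Lung cancer cell lines in 1536-well plates were dosed by pin tool one day after seeding, with one drug or with a fixed anchor-drug dose plus five library-drug doses (not always all listed) in √10 steps, and nuclei were counted after 5 days.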

HCC-15 = test system: HCC-15
Summary of the method: as §1

LCLC-103H = test system: LCLC-103H
Summary of the method: as §1

NCI-H1395 = test system: NCI-H1395
Summary of the method: as §1

NCI-H1623 = test system: NCI-H1623
Summary of the method: as §1

NCI-H1755 = test system: NCI-H1755
Summary of the method: as §1

UMC-11 = test system: UMC-11
Summary of the method: as §1

A549 = test system: A549
Summary of the method: as §1

Calu-6 = test system: Calu-6
Summary of the method: as §1

EBC-1 = test system: EBC-1
Summary of the method: as §1

HCC-44 = test system: HCC-44
Summary of the method: as §1

IA-LM = test system: IA-LM
Summary of the method: as §1

NCI-H1299 = test system: NCI-H1299
Summary of the method: as §1

NCI-H1648 = test system: NCI-H1648
Summary of the method: as §1

NCI-H1703 = test system: NCI-H1703
Summary of the method: as §1

COc1cc2nccc(Oc3ccc(NC(=O)Nc4cc(C)on4)c(Cl)c3)c2cc1OC [Tivozanib] + Cc1nc(Nc2ncc(C(=O)Nc3c(C)cccc3Cl)s2)cc(N2CCN(CCO)CC2)n1 [Dasatinib] (partner 0.075 µM)
relative viability (EKVX; first compound 0.005 µM): 0.571
relative viability (EKVX; first compound 0.01581 µM): 0.605
relative viability (EKVX; first compound 0.05 µM): 0.483
relative viability (EKVX; first compound 0.5 µM): 0.474
relative viability (HCC-15; first compound 0.005 µM): 0.534
relative viability (HCC-15; first compound 0.01581 µM): 0.579
relative viability (HCC-15; first compound 0.05 µM): 0.621
relative viability (HCC-15; first compound 0.1581 µM): 0.67
relative viability (HCC-15; first compound 0.5 µM): 0.607
relative viability (LCLC-103H; first compound 0.005 µM): 0.459
relative viability (LCLC-103H; first compound 0.01581 µM): 0.524
relative viability (LCLC-103H; first compound 0.05 µM): 0.513
relative viability (LCLC-103H; first compound 0.1581 µM): 0.433
relative viability (LCLC-103H; first compound 0.5 µM): 0.469
relative viability (NCI-H1395; first compound 0.005 µM): 0.376
relative viability (NCI-H1395; first compound 0.01581 µM): 0.407
relative viability (NCI-H1395; first compound 0.05 µM): 0.404
relative viability (NCI-H1395; first compound 0.1581 µM): 0.386
relative viability (NCI-H1395; first compound 0.5 µM): 0.371
relative viability (NCI-H1623; first compound 0.005 µM): 0.509
relative viability (NCI-H1623; first compound 0.01581 µM): 0.56
relative viability (NCI-H1623; first compound 0.05 µM): 0.578
relative viability (NCI-H1623; first compound 0.5 µM): 0.527
relative viability (NCI-H1755; first compound 0.005 µM): 0.356
relative viability (NCI-H1755; first compound 0.01581 µM): 0.415
relative viability (NCI-H1755; first compound 0.05 µM): 0.432
relative viability (NCI-H1755; first compound 0.1581 µM): 0.315
relative viability (NCI-H1755; first compound 0.5 µM): 0.383
relative viability (UMC-11; first compound 0.005 µM): 0.416
relative viability (UMC-11; first compound 0.01581 µM): 0.46
relative viability (UMC-11; first compound 0.05 µM): 0.465
relative viability (UMC-11; first compound 0.5 µM): 0.38

COc1cc2nccc(Oc3ccc(NC(=O)Nc4cc(C)on4)c(Cl)c3)c2cc1OC [Tivozanib] + O=C(c1cc(Cc2n[nH]c(=O)c3ccccc23)ccc1F)N1CCN(C(=O)C2CC2)CC1 [Olaparib] (partner 8 µM)
relative viability (A549; first compound 0.005 µM): 0.349
relative viability (A549; first compound 0.01581 µM): 0.456
relative viability (A549; first compound 0.05 µM): 0.398
relative viability (A549; first compound 0.1581 µM): 0.0913
relative viability (A549; first compound 0.5 µM): 0.246
relative viability (Calu-6; first compound 0.005 µM): 0.581
relative viability (Calu-6; first compound 0.01581 µM): 0.618
relative viability (Calu-6; first compound 0.05 µM): 0.522
relative viability (Calu-6; first compound 0.1581 µM): 0.671
relative viability (Calu-6; first compound 0.5 µM): 0.519
relative viability (EBC-1; first compound 0.005 µM): 0.642
relative viability (EBC-1; first compound 0.01581 µM): 0.704
relative viability (EBC-1; first compound 0.05 µM): 0.708
relative viability (EBC-1; first compound 0.1581 µM): 0.777
relative viability (EBC-1; first compound 0.5 µM): 0.736
relative viability (EKVX; first compound 0.005 µM): 0.801
relative viability (EKVX; first compound 0.01581 µM): 0.881
relative viability (EKVX; first compound 0.05 µM): 0.908
relative viability (EKVX; first compound 0.1581 µM): 0.922
relative viability (EKVX; first compound 0.5 µM): 0.725
relative viability (HCC-15; first compound 0.005 µM): 0.661
relative viability (HCC-15; first compound 0.01581 µM): 0.709
relative viability (HCC-15; first compound 0.05 µM): 0.755
relative viability (HCC-15; first compound 0.1581 µM): 0.696
relative viability (HCC-15; first compound 0.5 µM): 0.553
relative viability (HCC-44; first compound 0.005 µM): 0.967
relative viability (HCC-44; first compound 0.01581 µM): 0.911
relative viability (HCC-44; first compound 0.05 µM): 0.998
relative viability (HCC-44; first compound 0.1581 µM): 0.949
relative viability (HCC-44; first compound 0.5 µM): 0.999
relative viability (IA-LM; first compound 0.005 µM): 0.867
relative viability (IA-LM; first compound 0.01581 µM): 0.891
relative viability (IA-LM; first compound 0.05 µM): 0.857
relative viability (IA-LM; first compound 0.1581 µM): 0.697
relative viability (IA-LM; first compound 0.5 µM): 0.672
relative viability (LCLC-103H; first compound 0.005 µM): 0.785
relative viability (LCLC-103H; first compound 0.01581 µM): 0.783
relative viability (LCLC-103H; first compound 0.05 µM): 0.734
relative viability (LCLC-103H; first compound 0.1581 µM): 0.791
relative viability (LCLC-103H; first compound 0.5 µM): 0.853
relative viability (NCI-H1299; first compound 0.005 µM): 0.969
relative viability (NCI-H1299; first compound 0.01581 µM): 1.01
relative viability (NCI-H1299; first compound 0.05 µM): 0.962
relative viability (NCI-H1299; first compound 0.1581 µM): 0.965
relative viability (NCI-H1299; first compound 0.5 µM): 0.844
relative viability (NCI-H1395; first compound 0.005 µM): 0.421
relative viability (NCI-H1395; first compound 0.01581 µM): 0.443
relative viability (NCI-H1395; first compound 0.05 µM): 0.476
relative viability (NCI-H1395; first compound 0.1581 µM): 0.484
relative viability (NCI-H1395; first compound 0.5 µM): 0.422
relative viability (NCI-H1648; first compound 0.005 µM): 1
relative viability (NCI-H1648; first compound 0.01581 µM): 0.736
relative viability (NCI-H1648; first compound 0.05 µM): 0.799
relative viability (NCI-H1648; first compound 0.1581 µM): 1.25
relative viability (NCI-H1648; first compound 0.5 µM): 0.713
relative viability (NCI-H1703; first compound 0.005 µM): 0.216
relative viability (NCI-H1703; first compound 0.01581 µM): 0.256
relative viability (NCI-H1703; first compound 0.05 µM): 0.241
relative viability (NCI-H1703; first compound 0.1581 µM): 0.177
relative viability (NCI-H1703; first compound 0.5 µM): 0.146
relative viability (NCI-H1755; first compound 0.005 µM): 0.835
relative viability (NCI-H1755; first compound 0.01581 µM): 0.829
relative viability (NCI-H1755; first compound 0.05 µM): 0.936
relative viability (NCI-H1755; first compound 0.1581 µM): 0.773
relative viability (NCI-H1755; first compound 0.5 µM): 0.784
relative viability (UMC-11; first compound 0.005 µM): 0.373
relative viability (UMC-11; first compound 0.01581 µM): 0.393
relative viability (UMC-11; first compound 0.05 µM): 0.456
relative viability (UMC-11; first compound 0.1581 µM): 0.33
relative viability (UMC-11; first compound 0.5 µM): 0.415
